Results: ChEMBL document CHEMBL2417538, “Antithrombotic effects of LB30870, a potent, orally active, selective and direct thrombin inhibitor, and pharmacokinetics of its prodrug” (Bioorg Med Chem Lett, 2013)
Converted amounts (≈) assume the structure as drawn. The source made the active and inactive calls. The rule behind the calls is not given here.

Experiments:
Trypsin = Trypsin (Homo sapiens, UniProt P07477+P07478+P35030); assay: Inhibition of human trypsin; type: protein assay
Rattus norvegicus [1] = assay: Anticoagulant activity in Sprague-Dawley rat deep vein thrombosis model assessed as prothrombin time change at 0.1 mg/kg, iv administered as bolus and 4 ug/kg/min administered as infusion relative to control; type: functional
[2] = Aqueous solubility of the compound at pH 4.7; type: physicochemical; details: aqueous solution
Rattus norvegicus [3] = assay: Anticoagulant activity in Sprague-Dawley rat deep vein thrombosis model assessed as wet clot weight at 0.1 mg/kg, iv administered as bolus and 4 ug/kg/min administered as infusion (reference value: 83 +/- 5.1 mg); type: functional
Plasma [4] = assay: Anticoagulant activity in monkey plasma assessed as concentration required to double activated partial thromboplastin time; type: functional, Macaca mulatta
Homo sapiens [5] = species on record: Homo sapiens; assay: Selectivity ratio of Ki for human t-PA to Ki for human thrombin
[6] = AUC in Beagle dog at 10 mg/kg, po; type: ADME, organism-based, Canis lupus familiaris; parameters: dose 10 mg/kg, route oral; details: plasma
Prothrombin [7] = molecular target: T1, Prothrombin (Homo sapiens, UniProt P00734); assay: Binding affinity to thrombin (unknown origin) by surface plasmon resonance analysis
Rattus norvegicus [8] = assay: Anticoagulant activity in Sprague-Dawley rat deep vein thrombosis model assessed as activated partial thromboplastin time change at 0.05 mg/kg, iv administered as bolus and 2 ug/kg/min administered as infusion relative to control; type: functional
[9] = Plasma protein binding in rat at 5 ug/ml by ultra-filtration method; type: ADME, cell-free; details: read-out: PPB (converted)
[10] = Oral bioavailability in Beagle dog at 10 mg/kg; type: ADME, organism-based, Canis lupus familiaris; details: in vivo
Plasma [11] = assay: Anticoagulant activity in rat plasma assessed as concentration required to double activated partial thromboplastin time; type: functional
[12] = Aqueous solubility of the compound at pH 7.35; type: physicochemical; details: aqueous solution
[13] = Plasma protein binding in rat at 1 ug/ml by ultra-filtration method; type: ADME, cell-free; details: read-out: PPB (converted)
Rattus norvegicus [14] = assay: Anticoagulant activity in Sprague-Dawley rat deep vein thrombosis model assessed as prothrombin time change at 0.025 mg/kg, iv administered as bolus and 1 ug/kg/min administered as infusion relative to control; type: functional
Plasma [15] = assay: Anticoagulant activity in human plasma assessed as concentration required to double activated partial thromboplastin time; type: functional
[16] = AUC in Sprague-Dawley rat at 30 mg/kg, po; type: ADME, organism-based; parameters: dose 30 mg/kg, route oral; details: plasma
Plasma [17] = assay: Anticoagulant activity in human plasma assessed as concentration required to double thrombin time; type: functional
Rattus norvegicus [18] = assay: Anticoagulant activity in Sprague-Dawley rat deep vein thrombosis model assessed as wet clot weight at 0.05 mg/kg, iv administered as bolus and 2 ug/kg/min administered as infusion (reference value: 83 +/- 5.1 mg); type: functional
Homo sapiens [19] = species on record: Homo sapiens; assay: Selectivity ratio of Ki for human factor 10a to Ki for human thrombin
Rattus norvegicus [20] = assay: Anticoagulant activity in Sprague-Dawley rat deep vein thrombosis model assessed as wet clot weight at 0.2 mg/kg, iv administered as bolus and 8 ug/kg/min administered as infusion (reference value: 83 +/- 5.1 mg); type: functional
Plasma [21] = assay: Anticoagulant activity in rabbit plasma assessed as concentration required to double prothrombin time; type: functional, Oryctolagus cuniculus
Rattus norvegicus [22] = assay: Anticoagulant activity in Sprague-Dawley rat deep vein thrombosis model assessed as reduction in wet clot weight at 50 ug/kg, iv administered as infusion; type: functional
[23] = Plasma protein binding in human at 1 ug/ml by ultra-filtration method; type: ADME, cell-free; details: read-out: PPB (converted)
Prothrombin [24] = molecular target: T1, Prothrombin; assay: Inhibition of plasma clot-bound thrombin (unknown origin) using S2238 as substrate
[25] = molecular target: Tissue-type plasminogen activator (Homo sapiens, UniProt P00750); assay: Inhibition of human t-PA
Chain of Tissue-type plasminogen activator (P00750 whole entry): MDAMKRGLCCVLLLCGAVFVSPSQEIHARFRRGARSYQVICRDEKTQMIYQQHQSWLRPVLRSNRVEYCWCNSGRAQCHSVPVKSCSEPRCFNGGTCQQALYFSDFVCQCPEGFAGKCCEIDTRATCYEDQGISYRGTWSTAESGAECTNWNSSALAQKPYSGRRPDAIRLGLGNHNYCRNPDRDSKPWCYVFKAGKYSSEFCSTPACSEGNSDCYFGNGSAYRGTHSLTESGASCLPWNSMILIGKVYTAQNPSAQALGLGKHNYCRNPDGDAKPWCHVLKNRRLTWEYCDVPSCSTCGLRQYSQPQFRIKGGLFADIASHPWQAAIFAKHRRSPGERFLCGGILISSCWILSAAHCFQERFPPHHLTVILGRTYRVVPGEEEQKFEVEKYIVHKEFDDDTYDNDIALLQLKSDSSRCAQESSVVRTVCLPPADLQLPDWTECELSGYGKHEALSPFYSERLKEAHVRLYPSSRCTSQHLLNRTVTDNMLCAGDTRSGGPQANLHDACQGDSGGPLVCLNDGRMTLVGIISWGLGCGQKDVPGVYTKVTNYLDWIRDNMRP

[26] = Plasma protein binding in human at 5 ug/ml by ultra-filtration method; type: ADME, cell-free; details: read-out: PPB (converted)
[27] = Dissociation constant, pKa of the compound by potentiometric titration; type: physicochemical
Homo sapiens [28] = species on record: Homo sapiens; assay: Selectivity ratio of Ki for human plasmin to Ki for human thrombin
[29] = Plasma protein binding in human at 30 ug/ml by ultra-filtration method; type: ADME, cell-free; details: read-out: PPB (converted)
Plasminogen = Plasminogen (Homo sapiens, UniProt P00747); assay: Inhibition of human plasmin
Chain of Plasminogen (P00747 97-580 limits assumed): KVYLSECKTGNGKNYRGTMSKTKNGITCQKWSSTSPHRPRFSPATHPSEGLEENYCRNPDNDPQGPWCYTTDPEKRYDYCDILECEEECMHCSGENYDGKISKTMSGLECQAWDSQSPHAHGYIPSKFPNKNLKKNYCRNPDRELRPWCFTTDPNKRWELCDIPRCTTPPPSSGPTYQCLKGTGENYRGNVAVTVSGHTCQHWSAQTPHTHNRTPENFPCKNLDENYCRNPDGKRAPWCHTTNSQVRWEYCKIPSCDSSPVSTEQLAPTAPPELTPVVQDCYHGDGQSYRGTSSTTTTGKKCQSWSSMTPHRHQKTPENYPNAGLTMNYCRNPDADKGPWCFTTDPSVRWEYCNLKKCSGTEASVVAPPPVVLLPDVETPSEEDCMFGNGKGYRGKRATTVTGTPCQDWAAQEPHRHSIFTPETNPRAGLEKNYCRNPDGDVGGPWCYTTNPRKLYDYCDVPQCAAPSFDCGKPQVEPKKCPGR
Chain of Plasminogen (P00747 581-810 limits assumed): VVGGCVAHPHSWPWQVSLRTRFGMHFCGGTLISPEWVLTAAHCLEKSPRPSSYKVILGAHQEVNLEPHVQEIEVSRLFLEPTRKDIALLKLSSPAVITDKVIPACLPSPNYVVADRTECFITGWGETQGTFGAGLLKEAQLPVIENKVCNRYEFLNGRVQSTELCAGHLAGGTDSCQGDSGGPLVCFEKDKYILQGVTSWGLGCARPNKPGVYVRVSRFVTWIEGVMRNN

[30] = Plasma protein binding in rat at 30 ug/ml by ultra-filtration method; type: ADME, cell-free; details: read-out: PPB (converted)
Plasma [31] = assay: Anticoagulant activity in rabbit plasma assessed as concentration required to double thrombin time; type: functional, Oryctolagus cuniculus
Rattus norvegicus [32] = assay: Anticoagulant activity in Sprague-Dawley rat deep vein thrombosis model assessed as reduction in wet clot weight administered as iv bolus followed by infusion relative to control; type: functional, organism-based
[33] = Plasma protein binding in dog at 1 ug/ml by ultra-filtration method; type: ADME, cell-free, Canis lupus familiaris; details: read-out: PPB (converted)
Rattus norvegicus [34] = assay: Anticoagulant activity in Sprague-Dawley rat deep vein thrombosis model assessed as prothrombin time change at 0.25 mg/kg, iv administered as bolus and 10 ug/kg/min administered as infusion relative to control; type: functional
Rattus norvegicus [35] = assay: Anticoagulant activity in Sprague-Dawley rat deep vein thrombosis model assessed as activated partial thromboplastin time change at 0.025 mg/kg, iv administered as bolus and 1 ug/kg/min administered as infusion relative to control; type: functional
Plasma [36] = assay: Anticoagulant activity in rat plasma assessed as concentration required to double prothrombin time; type: functional
Rattus norvegicus [37] = assay: Anticoagulant activity in Sprague-Dawley rat deep vein thrombosis model assessed as activated partial thromboplastin time change at 0.1 mg/kg, iv administered as bolus and 4 ug/kg/min administered as infusion relative to control; type: functional
[38] = Cmax in Beagle dog at 10 mg/kg, po; type: ADME, organism-based, Canis lupus familiaris; parameters: dose 10 mg/kg, route oral; details: in vivo
Prothrombin [39] = molecular target: T1, Prothrombin; assay: Inhibition of human thrombin
[40] = Cmax in Sprague-Dawley rat at 30 mg/kg, po; type: ADME, organism-based; parameters: dose 30 mg/kg, route oral; details: in vivo
Plasma [41] = assay: Anticoagulant activity in rat plasma assessed as concentration required to double thrombin time; type: functional
Prothrombin [42] = molecular target: T1, Prothrombin; assay: Inhibition of free thrombin (unknown origin) using S2238 as substrate
Rattus norvegicus [43] = assay: Anticoagulant activity in Sprague-Dawley rat deep vein thrombosis model assessed as activated partial thromboplastin time change at 0.25 mg/kg, iv administered as bolus and 10 ug/kg/min administered as infusion relative to control; type: functional
Rattus norvegicus [44] = assay: Anticoagulant activity in Sprague-Dawley rat deep vein thrombosis model assessed as prothrombin time change at 0.05 mg/kg, iv administered as bolus and 2 ug/kg/min administered as infusion relative to control; type: functional
[45] = Plasma protein binding in dog at 5 ug/ml by ultra-filtration method; type: ADME, cell-free, Canis lupus familiaris; details: read-out: PPB (converted)
Rattus norvegicus [46] = assay: Anticoagulant activity in Sprague-Dawley rat deep vein thrombosis model assessed as activated partial thromboplastin time change at 0.2 mg/kg, iv administered as bolus and 8 ug/kg/min administered as infusion relative to control; type: functional
Prothrombin [47] = molecular target: T1, Prothrombin; assay: Competitive inhibition of human thrombin at 0.25 to 1 nM by Lineweaver-Burk plot analysis
[48] = Oral bioavailability in Sprague-Dawley rat at 30 mg/kg; type: ADME, organism-based; details: in vivo
Plasma [49] = assay: Anticoagulant activity in human plasma assessed as concentration required to double prothrombin time; type: functional
Prothrombin [50] = molecular target: T1, Prothrombin; assay: Inhibition of thrombin (unknown origin) assessed as fibrin clot formation
[51] = Plasma protein binding in dog at 30 ug/ml by ultra-filtration method; type: ADME, cell-free, Canis lupus familiaris; details: read-out: PPB (converted)
Plasma [52] = assay: Anticoagulant activity in monkey plasma assessed as concentration required to double prothrombin time; type: functional, Macaca mulatta
Plasma [53] = assay: Anticoagulant activity in rabbit plasma assessed as concentration required to double activated partial thromboplastin time; type: functional, Oryctolagus cuniculus
[54] = Distribution coefficient, log D of the compound at pH 7 by potentiometric titration; type: physicochemical; details: octanol/water
[55] = Oral bioavailability in monkey; type: ADME, organism-based, Macaca mulatta; details: rhesus monkey, in vivo
Coagulation factor X = Coagulation factor X (Homo sapiens, UniProt P00742); assay: Inhibition of human factor 10a
Chain of Coagulation factor X (P00742 41-179 limits assumed): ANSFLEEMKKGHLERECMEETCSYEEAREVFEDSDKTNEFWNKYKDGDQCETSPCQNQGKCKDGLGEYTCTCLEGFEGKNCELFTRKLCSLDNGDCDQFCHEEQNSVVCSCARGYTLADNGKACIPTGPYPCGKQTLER
Chain of Coagulation factor X (P00742 235-488 limits assumed): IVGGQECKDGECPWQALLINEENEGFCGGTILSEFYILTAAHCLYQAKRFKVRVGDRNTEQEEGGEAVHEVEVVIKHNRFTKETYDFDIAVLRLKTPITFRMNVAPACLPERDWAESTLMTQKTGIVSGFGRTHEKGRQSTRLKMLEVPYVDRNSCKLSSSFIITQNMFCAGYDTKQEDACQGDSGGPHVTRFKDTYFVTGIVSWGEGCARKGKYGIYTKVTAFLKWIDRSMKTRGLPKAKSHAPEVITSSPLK

Rattus norvegicus [56] = assay: Anticoagulant activity in Sprague-Dawley rat deep vein thrombosis model assessed as prothrombin time change at 0.2 mg/kg, iv administered as bolus and 8 ug/kg/min administered as infusion relative to control; type: functional
[57] = Aqueous solubility of the compound at pH 6.62; type: physicochemical; details: aqueous solution
Homo sapiens [58] = species on record: Homo sapiens; assay: Selectivity ratio of Ki for human trypsin to Ki for human thrombin
Plasma [59] = assay: Anticoagulant activity in monkey plasma assessed as concentration required to double thrombin time; type: functional, Macaca mulatta

Question: What does the source list for `N=C(N)c1ccc(CNC(=O)[C@@H]2CCCN2C(=O)[C@@H](NCC(=O)O)C(c2ccccc2)c2ccccc2)s1`?
Answer: Ki (Trypsin): 0.3 nM; fold change (FC) (Rattus norvegicus [1]): 2.07; solubility [2]: 15000 µg/mL (≈ 28200 µM); Activity (Rattus norvegicus [3]): 23 mg; 2aPTT (Plasma [4]): 0.51 µM; Activity (Plasma [4]; Macaca mulatta): Dose-dependent effect; Ratio Ki (Homo sapiens [5]): 5210; AUC [6]: 12200 ng·h/mL; Kd (Prothrombin [7]): 0.18 nM; fold change (FC) (Rattus norvegicus [8]): 2.77; fraction unbound at 5 ug/ml [9]: 0.147; bioavailability [10]: 43%; 2aPTT (Plasma [11]): 0.97 µM; Activity (Plasma [11]): Dose-dependent effect; solubility [12]: 460 µg/mL (≈ 862 µM); fraction unbound at 1 ug/ml [13]: 0.124; fold change (FC) (Rattus norvegicus [14]): 1.03; 2aPTT (Plasma [15]): 0.23 µM; Activity (Plasma [15]): Dose-dependent effect; AUC [16]: 9270 ng·h/mL; 2TT (Plasma [17]): 0.016 µM; Activity (Plasma [17]): Dose-dependent effect; Activity (Rattus norvegicus [18]): 46 mg; Ratio Ki (Homo sapiens [19]): > 10000; Activity (Rattus norvegicus [20]): 0 mg; 2PT (Plasma [21]): 2.04 µM; Activity (Plasma [21]; Oryctolagus cuniculus): Dose-dependent effect; ED50 (Rattus norvegicus [22]): 2 µg/kg/min; fraction unbound at 1 ug/ml [23]: 0.485; IC50 (Prothrombin [24]): 5 nM; Ki [25]: 113 nM; fraction unbound at 5 ug/ml [26]: 0.482; pKa [27]: 1.91; Ratio Ki (Homo sapiens [28]): > 10000; fraction unbound at 30 ug/ml [29]: 0.508; Ki (Plasminogen): 7430 nM; fraction unbound at 30 ug/ml [30]: 0.182; 2TT (Plasma [31]): 0.019 µM; Activity (Plasma [31]; Oryctolagus cuniculus): Dose-dependent effect; Activity (Rattus norvegicus [32]): Dose-dependent effect; fraction unbound at 1 ug/ml [33]: 0.174; fold change (FC) (Rattus norvegicus [34]): 17.2; fold change (FC) (Rattus norvegicus [35]): 1.68; 2PT (Plasma [36]): 1.12 µM; Activity (Plasma [36]): Dose-dependent effect; fold change (FC) (Rattus norvegicus [37]): 3.58; Cmax [38]: 6900 ng/mL; Ki (Prothrombin [39]): 0.02 nM; Cmax [40]: 2900 ng/mL; 2TT (Plasma [41]): 0.01 µM; Activity (Plasma [41]): Dose-dependent effect; IC50 (Prothrombin [42]): 2.1 nM; fold change (FC) (Rattus norvegicus [43]): 4.37; fold change (FC) (Rattus norvegicus [44]): 1.15; fraction unbound at 5 ug/ml [45]: 0.177; fold change (FC) (Rattus norvegicus [46]): 5.58; inhibition (Prothrombin [47]): Active; bioavailability [48]: 30%; 2PT (Plasma [49]): 0.66 µM; Activity (Plasma [49]): Dose-dependent effect; IC50 (Prothrombin [50]): 16 nM; fraction unbound at 30 ug/ml [51]: 0.216; 2PT (Plasma [52]): 0.3 µM; Activity (Plasma [52]; Macaca mulatta): Dose-dependent effect; 2aPTT (Plasma [53]): 1.1 µM; Activity (Plasma [53]; Oryctolagus cuniculus): Dose-dependent effect; logD [54]: -0.088; bioavailability [55]: 15%; Ki (Coagulation factor X): 2250 nM; fold change (FC) (Rattus norvegicus [56]): 9.04; solubility [57]: 570 µg/mL (≈ 1070 µM); Ratio Ki (Homo sapiens [58]): 13.7; 2TT (Plasma [59]): >0.2 µM; Activity (Plasma [59]; Macaca mulatta): Dose-dependent effect
